From US5380921A, “Aminophosponic acid derivative” (Banyu Pharmaceutical Co., Ltd., priority 1993, dated 1995)
“Also recorded” adds a separate entry of the source. One block for each molecule: values may come before it.

Experiments:
[1] = test system: Isolated Guinea Pig Bronchial Smooth Muscles; assay: Effect on Big Endothelin-1-induced Contraction in Isolated Guinea Pig Bronchial Smooth Muscles
Experimental: Bronchia (outer diameter approximately 2 mm) were isolated from the lung of a guinea pig, and the connective tissue, lung parenchymal tissue, etc. were peeled off, and then a ring preparation (4 mm in length) was prepared. These samples were placed in a 5 ml Magnus' tube filled with Krebs-Henseleit solution saturated with a gas mixture of 95% O2 and 5% CO2, and a change in tension was isometrically measured and recorded.
The influence of a representative compound of the present invention (Compound of Example 2, Isomer B) to the increase in the tension produced by 100 nM of big endothelin-1 was examined. The test compound was added into the Magnus' tube 40 minutes prior to the addition of big endothelin-1.
A 100% increase in the tension was defined as that in the case of no addition of the test compound (control) at 2 hours after addition of big endothelin-1, and the comparison with the increase in the tension in the cases where the test compound was added is shown in Table 3.

[2] = target: T1, endothelin-converting enzyme (ECE) (Bos taurus, UniProt P42891); assay: ECE Activity Inhibition Test (endothelin-1 produced from big endothelin-1, RIA); assay type: biochemical; conditions: 10 μM test compound; 1 μM big endothelin-1; pH 7.2, 37° C., 90 minutes
T1 construct: ECE was prepared according to the method already published by Yano, et.al; endogenous in cells
T1 sequence (P42891 1-754): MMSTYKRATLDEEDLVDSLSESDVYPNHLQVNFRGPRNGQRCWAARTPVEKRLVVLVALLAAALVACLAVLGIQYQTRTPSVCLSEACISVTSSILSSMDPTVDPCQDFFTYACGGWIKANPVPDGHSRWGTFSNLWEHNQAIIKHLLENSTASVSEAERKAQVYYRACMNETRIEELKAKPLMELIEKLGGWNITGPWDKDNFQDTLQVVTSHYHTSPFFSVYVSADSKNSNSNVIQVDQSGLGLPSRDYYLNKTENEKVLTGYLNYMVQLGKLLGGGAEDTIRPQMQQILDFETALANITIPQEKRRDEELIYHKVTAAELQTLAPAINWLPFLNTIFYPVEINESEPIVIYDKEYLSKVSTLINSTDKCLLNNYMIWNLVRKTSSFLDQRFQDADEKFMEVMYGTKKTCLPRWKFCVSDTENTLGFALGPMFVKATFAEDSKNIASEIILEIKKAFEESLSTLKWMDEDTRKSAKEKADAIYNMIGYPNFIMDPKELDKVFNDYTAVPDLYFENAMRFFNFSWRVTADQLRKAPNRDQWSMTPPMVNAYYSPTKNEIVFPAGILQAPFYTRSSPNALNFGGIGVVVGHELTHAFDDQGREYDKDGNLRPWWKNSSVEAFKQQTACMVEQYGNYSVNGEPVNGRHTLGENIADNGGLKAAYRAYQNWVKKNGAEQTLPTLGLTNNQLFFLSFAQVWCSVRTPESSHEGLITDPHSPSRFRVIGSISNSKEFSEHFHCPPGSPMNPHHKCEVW
Experimental: ECE was prepared according to the method already published by Yano, et.al. (Biochem. Biophys. Res. Commun., Vol. 171, p.1192-1198, 1990), and 11 μg of ECE and 1 μM of big endothelin-1 were reacted with a 0.5M Tris-HCl buffer solution (pH 7.2) at 37° C. for 90 minutes in the presence or absence of a test compound, after which the amount of endothelin-1 produced thereby was determined by the RIA method, and the ECE inhibition activity of the test compound was evaluated.

Guinea Pigs = assay: Effect on Big Endothelin-1-induced Increase in Airway Resistance in Guinea Pigs; assay type: in vivo, guinea pig
Experimental: Guinea pigs were first anesthetized with urethane, and then the necks were subjected to median incision, a tracheal cannula was inserted in the trachea. Spontaneous respiration was interrupted with succinylcholine (5 mg/kg, hypodermic injection), and then an artificial respirator was used to effect artificial ventilation (10 ml/air/kg, […]). The airway pressure was then measured and recorded using the Konzett and Rossler method (Arch. Exp. Path. Pharmacol., Vol. 135, p.71-74, 1940), via an airway contraction transducer from the tracheal cannula.
Examined was the influence of a representative compound of the present invention (Compound of Example 1, Isomer B) to the increase in airway pressure produced by the administration of 5 nmol/kg of big endothelin-1 through a polyethylene tube inserted into the common carotid vein. The test compound was injected into the common carotid vein 5 minutes before the administration of big endothelin-1. Also, upon completion of the experiment, the change in airway pressure obtained by blockage of the trachea was defined as a 100% increase in airway pressure, and the measured increases in airway pressure were expressed as percentages of this value. […]

[3] = test system: Isolated Pig Coronary Arteries; assay: Effect on Big Endothelin-1-induced Contraction in Isolated Pig Coronary Arteries
Experimental: (§1) Pig coronary arteries were isolated, and a spiral preparation having a width of 1 mm and a length of 10 mm was prepared therefrom. These samples were then placed in a 5 ml Magnus' tube filled with Krebs-Henseleit solution saturated with a gas mixture of 95% O2 and 5% CO2, and a change in the tension was isometrically measured and recorded.
The influence of a representative compound of the present invention (Compound of Example 11) to the increase in the tension produced by 30 nM of big endothelin-1 was examined. The test compound was added to the Magnus' tube 40 minutes prior to the addition of big endothelin-1.
A 100% increase in the tension was defined as that in the case of no addition of the test compound (control) at 2 hours after addition of big endothelin-1, and the comparison with the increase in the tension in the cases where the test compound was added is shown in Table 2.

[4] = test system: Isolated Pig Coronary Arteries; assay: Effect on endothelin-1-induced increase in tension in isolated pig coronary arteries; conditions: 0.3 nM endothelin-1
Experimental: as §1, with “recorded. […]” for “recorded.”

Structure (SMILES): O=C(O)[C@H](Cc1c[nH]c2ccccc12)NC(=O)[C@H](Cc1ccccc1)NC(CCc1ccccc1)P(=O)(O)O (single isomer, unassigned) [Example 10 (Isomer B), N-[N-(3-phenyl-1-phosphonopropyl)-L-phenylalanil]-L-tryptophan]
inhibition at 10 µM [2]: 76%

Structure (SMILES): CC(C)C[C@H](NP(=O)(O)O[C@@H]1O[C@@H](C)[C@H](O)[C@@H](O)[C@H]1O)C(=O)N[C@@H](Cc1c[nH]c2ccccc12)C(=O)O [Phosphoramidon, reference compound]
inhibition at 10 µM [2]: 64%

Structure (SMILES): CC(C)C[C@H](NC(CCc1ccccc1)P(=O)(O)O)C(=O)N[C@@H](Cc1c[nH]c2ccccc12)C(=O)O (single isomer, unassigned) [Example 1 (Isomer B), N-[N-(3-phenyl-1-phosphonopropyl)-L-leucyl]-L-tryptophan]
increase in airway pressure induced by big endothelin-1 (Guinea Pigs; 0.3, 1.0 and 3.0 mg/kg into common carotid vein, 5 minutes before 5 nmol/kg big endothelin-1, FIG. 1): remarkably inhibits the increase in the airway pressure; also recorded: suppressed the increase in airway pressure induced by big endothelin-1, in a dose-dependent manner
change in airway pressure on administration of the test compound alone (Guinea Pigs; test compound alone): no change in the airway pressure

Structure (SMILES): CC(C)C[C@H](NC(CCc1c[nH]c2ccccc12)P(=O)(O)O)C(=O)N[C@@H](Cc1c[nH]c2ccccc12)C(=O)O (stereo partly drawn) [Example 6, N-[N-[3-(3-indolyl)-1-phosphonopropyl]-L-leucyl]-L-tryptophan]
inhibition at 10 µM [2]: 80%

More lines, main results first:

IC50 ([1]; Cavia porcellus, 100 nM big endothelin-1, guinea pig bronchia, calculated, read-out: IC50 value, inhibition of big endothelin-1-induced contraction): 16 µM
Structure (SMILES): CC(C)C[C@H](NC(CCc1cccc2ccccc12)P(=O)(O)O)C(=O)N[C@@H](Cc1c[nH]c2ccccc12)C(=O)O (single isomer, unassigned) [Example 2 (Isomer B), N-{N-[3-(1-naphthyl)-1-phosphonopropyl]-L-leucyl}-L-tryptophan]
inhibition of big endothelin-1-induced contraction (in words) ([1]; 100 nM big endothelin-1, 1-100 μm (so in the source)): dose-dependent inhibition
activity at 1 µM ([1]; Cavia porcellus, 1 μm (so in the source), 100 nM big endothelin-1, at 2 hours, read-out: Contraction (% of control)): 105%
activity at 10 µM ([1]; Cavia porcellus, 10 μm (so in the source), 100 nM big endothelin-1, at 2 hours, read-out: Contraction (% of control)): 54.9%
activity at 100 µM ([1]; Cavia porcellus, 100 μm (so in the source), 100 nM big endothelin-1, at 2 hours, read-out: Contraction (% of control)): 32.9%
effect of the test compound itself on the tension of bronchial samples ([1]; compound alone): no effect

IC50 ([3]; Sus scrofa, 30 nM big endothelin-1, pig coronary arteries, calculated, read-out: IC50 value, inhibition of big endothelin-1-induced contraction): 16 µM
inhibition at 10 µM [2]: 84%
Structure (SMILES): CC(C)C[C@H](NC(CCc1ccccc1)P(=O)(O)O)C(=O)N[C@@H](Cc1c[nH]c2ccccc12)C(=O)O (stereo partly drawn) [Example 11, N-[N-(3-phenyl-1-phosphonopropyl)-L-leucyl]-L-tryptophan]
inhibition of big endothelin-1-induced contraction (in words) ([3]; 30 nM big endothelin-1, 10-100 μM): dose-dependent inhibition
activity at 10 µM ([3]; Sus scrofa, 10 μM, 30 nM big endothelin-1, at 2 hours, read-out: Contraction (% of control)): 59.9%
activity at 30 µM ([3]; Sus scrofa, 30 μM, 30 nM big endothelin-1, at 2 hours, read-out: Contraction (% of control)): 35.3%
activity at 100 µM ([3]; Sus scrofa, 100 μM, 30 nM big endothelin-1, at 2 hours, read-out: Contraction (% of control)): 2.7%
effect of the compound itself on the tension of blood vessel samples ([3]; compound alone): no effect
effect on the increase in the tension caused by endothelin-1 [4]: no effect
